Here are results for 24 compounds from patent publication US11566002B2, “Substituted tetrahydrocyclopenta[C]pyrroles, substituted dihydropyrrolizines, analogues thereof, and methods using same” (priority 2018, dated 2023).

Structures are written as SMILES. Some results are limits rather than exact numbers.

In one test the test system is HBV rcDNA. The test can be described thus: HepDE19 assay with bDNA quantitation of HBV rcDNA. The format is cell-based, hepatitis B virus. The conditions noted are these: HepDE19 cells, Tet-free medium, 7 day-incubation, rcDNA measured by Quantigene 2.0 bDNA assay, top concentration 25 μM; read-out: DE-19 bDNA EC50. A digest of the protocol:
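Cytotoxicity (CC50) measured by CellTiter-Glo ATP content in parallel plates, 5,000 cells/well, 4 days. Antiviral EC50 and EC90 derived from HBV rcDNA bDNA levels after 7-day compound exposure (top 25 μM, ½-log 8-point, 0.5% DMSO) of Tet-withdrawn HepDE19 cells at 50,000/well, as % inhibition versus untreated.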
Regarding `Cc1c2c(c(C(=O)Nc3ccc(F)c(Cl)c3)n1C)CCC2NC(=O)OCc1ncn(C)n1` (single isomer, unassigned) [Compound 82, (1-Methyl-1H-1,2,4-triazol-3-yl)methyl (1-((3-chloro-4-fluorophenyl)carbamoyl)-2,3-dimethyl-2,4,5,6-tetrahydrocyclopenta[c]pyrrol-4-yl)carbamate], the EC50 stood at 110 nM.
On the same count and under the same terms, in the case of `Cc1c2c(c(C(=O)Nc3ccc(F)c(Cl)c3)n1C)CCC2NC(=O)OCc1ncn(C)n1` (single isomer, unassigned) [Compound 83, (1-Methyl-1H-1,2,4-triazol-3-yl)methyl (1-((3-chloro-4-fluorophenyl)carbamoyl)-2,3-dimethyl-2,4,5,6-tetrahydrocyclopenta[c]pyrrol-4-yl)carbamate] it was 3300 nM.
Still for that read-out and setting: in the case of `Cn1cnc(COC(=O)NC2CCCCc3c2cn(C)c3C(=O)Nc2ccc(F)c(Cl)c2)n1` (single isomer, unassigned) [Compound 86, (1-Methyl-1H-1,2,4-triazol-3-yl)methyl (1-((3-chloro-4-fluorophenyl)carbamoyl)-2-methyl-2,4,5,6,7,8-hexahydrocyclohepta[c]pyrrol-4-yl)carbamate] it was 160 nM; in that of `Cn1cnc(COC(=O)NC2CCCCc3c2cn(C)c3C(=O)Nc2ccc(F)c(Cl)c2)n1` (single isomer, unassigned) [Compound 89, (1-Methyl-1H-1,2,4-triazol-3-yl)methyl (1-((3-chloro-4-fluorophenyl)carbamoyl)-2-methyl-2,4,5,6,7,8-hexahydrocyclohepta[c]pyrrol-4-yl)carbamate], 2900 nM.
Still for that read-out and setting: in the case of `Cn1cnc(COC(=O)NC2CCc3c2c(C2CC2)n(C)c3C(=O)Nc2ccc(F)c(Cl)c2)n1` (single isomer, unassigned) [Compound 90, (1-Methyl-1H-1,2,4-triazol-3-yl)methyl (1-((3-chloro-4-fluorophenyl)carbamoyl)-3-cyclopropyl-2-methyl-2,4,5,6-tetrahydrocyclopenta[c]pyrrol-4-yl)carbamate] it was 420 nM.
`Cn1cnc(COC(=O)NC2CCc3c2c(C2CC2)n(C)c3C(=O)Nc2ccc(F)c(Cl)c2)n1` (single isomer, unassigned) [Compound 91, (1-Methyl-1H-1,2,4-triazol-3-yl)methyl (1-((3-chloro-4-fluorophenyl)carbamoyl)-3-cyclopropyl-2-methyl-2,4,5,6-tetrahydrocyclopenta[c]pyrrol-4-yl)carbamate]: the EC50 amounted to 22000 nM.
The same measure, in the same setting: in the case of `Cc1c2c(c(C(=O)Nc3ccc(F)c(Cl)c3)n1C)CCCC2NC(=O)OCc1ncn(C)n1` (single isomer, unassigned) [Compound 93, (1-Methyl-1H-1,2,4-triazol-3-yl)methyl (1-((3-chloro-4-fluorophenyl)carbamoyl)-2,3-dimethyl-4,5,6,7-tetrahydro-2H-isoindol-4-yl)carbamate] it was 950 nM; in that of `Cn1cnc(COC(=O)NC2CCc3c2c(C2CCC2)n(C)c3C(=O)Nc2ccc(F)c(Cl)c2)n1` (single isomer, unassigned) [Compound 96, (1-Methyl-1H-1,2,4-triazol-3-yl)methyl (1-((3-chloro-4-fluorophenyl)carbamoyl)-3-cyclobutyl-2-methyl-2,4,5,6-tetrahydrocyclopenta[c]pyrrol-4-yl)carbamate], 420 nM.
Same read-out and setting: in the case of `Cn1cnc(COC(=O)NC2CCc3c2c(C2CCC2)n(C)c3C(=O)Nc2ccc(F)c(Cl)c2)n1` (single isomer, unassigned) [Compound 97, (1-Methyl-1H-1,2,4-triazol-3-yl)methyl (1-((3-chloro-4-fluorophenyl)carbamoyl)-3-cyclobutyl-2-methyl-2,4,5,6-tetrahydrocyclopenta[c]pyrrol-4-yl)carbamate] it was no less than 25000 nM.
As for `Cn1c(C(=O)Nc2ccc(F)c(Cl)c2)c2c(c1C1CC1)C(NC(=O)OCc1nc[nH]n1)CC2` (single isomer, unassigned) [Compound 98, (1H-1,2,4-Triazol-3-yl)methyl (1-((3-chloro-4-fluorophenyl)carbamoyl)-3-cyclopropyl-2-methyl-2,4,5,6-tetrahydrocyclopenta[c]pyrrol-4-yl)carbamate], the EC50 was 15000 nM.
The same measure, in the same setting: as for `Cn1c(C(=O)Nc2ccc(F)c(Cl)c2)c2c(c1C1CC1)C(NC(=O)OCc1nc[nH]n1)CC2` (single isomer, unassigned) [Compound 99, (1H-1,2,4-Triazol-3-yl)methyl (1-((3-chloro-4-fluorophenyl)carbamoyl)-3-cyclopropyl-2-methyl-2,4,5,6-tetrahydrocyclopenta[c]pyrrol-4-yl)carbamate], the figure is 330 nM.
On the same count and under the same terms, as for `C#CCOC(=O)NC1CCc2c1cn(C)c2C(=O)Nc1ccc(F)c(Cl)c1` (single isomer, unassigned) [Compound 101, Prop-2-yn-1-yl (1-((3-chloro-4-fluorophenyl)carbamoyl)-2-methyl-2,4,5,6-tetrahydrocyclopenta[c]pyrrol-4-yl)carbamate], the figure is 1600 nM; as for `C#CCOC(=O)NC1CCc2c1cn(C)c2C(=O)Nc1ccc(F)c(Cl)c1` (single isomer, unassigned) [Compound 102, Prop-2-yn-1-yl (1-((3-chloro-4-fluorophenyl)carbamoyl)-2-methyl-2,4,5,6-tetrahydrocyclopenta[c]pyrrol-4-yl)carbamate], 20 nM; as for `Cn1c(Cl)c2c(c1C(=O)Nc1ccc(F)c(Cl)c1)CCC2NC(=O)OCc1nc[nH]n1` (single isomer, unassigned) [Compound 104, (1H-1,2,4-Triazol-3-yl)methyl (3-chloro-1-((3-chloro-4-fluorophenyl)carbamoyl)-2-methyl-2,4,5,6-tetrahydrocyclopenta[c]pyrrol-4-yl)carbamate], 1900 nM.
The same measure, in the same setting: in the case of `Cn1c(Cl)c2c(c1C(=O)Nc1ccc(F)c(Cl)c1)CCC2NC(=O)OCc1nc[nH]n1` (single isomer, unassigned) [Compound 105, (1H-1,2,4-Triazol-3-yl)methyl (3-chloro-1-((3-chloro-4-fluorophenyl)carbamoyl)-2-methyl-2,4,5,6-tetrahydrocyclopenta[c]pyrrol-4-yl)carbamate] it was 10 nM; in that of `Cn1c(Cl)c2c(c1C(=O)Nc1ccc(F)c(Cl)c1)CCC2NC(=O)OCc1cn[nH]n1` (single isomer, unassigned) [Compound 106, (2H-1,2,3-Triazol-4-yl)methyl (3-chloro-1-((3-chloro-4-fluorophenyl)carbamoyl)-2-methyl-2,4,5,6-tetrahydrocyclopenta[c]pyrrol-4-yl)carbamate], 1400 nM.

Still in this test, the particulars now being: Hepatitis B virus, HepDE19, 168 h, HepDE19 cells, Tet-free medium, 7 day-incubation, rcDNA measured by Quantigene 2.0 bDNA assay, top concentration 25 μM; read-out: DE-19 bDNA EC50.
Turning to `Cn1cc2c(c1C(=O)Nc1ccc(F)c(Cl)c1)CCCC2NS(=O)(=O)C1CC1` (single isomer, unassigned) [Compound 78, N-(3-Chloro-4-fluorophenyl)-4-(cyclopropanesulfonamido)-2-methyl-4,5,6,7-tetrahydro-2H-isoindole-1-carboxamide], the EC50 was 3960 nM.
As to `Cn1cnc(COC(=O)NC2CCc3c2cn(C)c3C(=O)Nc2ccnc(C(F)F)c2)n1` (single isomer, unassigned) [Compound 81, (1-methyl-1H-1,2,4-triazol-3-yl)methyl (1-((2-(difluoromethyl)pyridin-4-yl)carbamoyl)-2-methyl-2,4,5,6-tetrahydrocyclopenta[c]pyrrol-4-yl)carbamate], the EC50 came out at 600 nM.
The same measure, in the same setting: in the case of `Cn1cnc(CNC(=O)NC2CCCc3c2cn(C)c3C(=O)Nc2ccc(F)c(Cl)c2)n1` (single isomer, unassigned) [Compound 84, N-(3-Chloro-4-fluorophenyl)-2-methyl-4-(3-((1-methyl-1H-1,2,4-triazol-3-yl)methyl)ureido)-4,5,6,7-tetrahydro-2H-isoindole-1-carboxamide] it was 340 nM; in that of `Cn1cc2c(c1C(=O)Nc1ccc(F)c(Cl)c1)CCCC2NC(=O)OCc1nc[nH]n1` (single isomer, unassigned) [Compound 88, (1H-1,2,4-Triazol-3-yl)methyl (1-((3-chloro-4-fluorophenyl)carbamoyl)-2-methyl-4,5,6,7-tetrahydro-2H-isoindol-4-yl)carbamate], 510 nM; in that of `Cc1c2c(c(C(=O)Nc3ccc(F)c(Cl)c3)n1C)CCCC2NC(=O)OCc1ncn(C)n1` (single isomer, unassigned) [Compound 92, (1-Methyl-1H-1,2,4-triazol-3-yl)methyl (1-((3-chloro-4-fluorophenyl)carbamoyl)-2,3-dimethyl-4,5,6,7-tetrahydro-2H-isoindol-4-yl)carbamate], 530 nM.
Same read-out and setting: in the case of `Cn1cnc(COC(=O)NC2CCCc3c2c(Cl)n(C)c3C(=O)Nc2ccc(F)c(Cl)c2)n1` (single isomer, unassigned) [Compound 94, (1-Methyl-1H-1,2,4-triazol-3-yl)methyl (3-chloro-1-((3-chloro-4-fluorophenyl)carbamoyl)-2-methyl-4,5,6,7-tetrahydro-2H-isoindol-4-yl)carbamate] it was 440 nM.

Staying with this test, now noted: read-out: DE-19 bDNA EC50; HepDE19 cells, Tet-free medium, 7 day-incubation, rcDNA measured by Quantigene 2.0 bDNA assay, top concentration 25 μM.
As for `COC(=O)NC1CCCCc2c1cn(C)c2C(=O)Nc1ccc(F)c(Cl)c1` (single isomer, unassigned) [Compound 79, Methyl (1-((3-chloro-4-fluorophenyl)carbamoyl)-2-methyl-2,4,5,6,7,8-hexahydrocyclohepta[c]pyrrol-4-yl)carbamate], the EC50 was found to be 730 nM.
`COC(=O)NC1CCCCc2c1cn(C)c2C(=O)Nc1ccc(F)c(Cl)c1` (single isomer, unassigned) [Compound 85, Methyl (1-((3-chloro-4-fluorophenyl)carbamoyl)-2-methyl-2,4,5,6,7,8-hexahydrocyclohepta[c]pyrrol-4-yl)carbamate]: the 50% effective concentration (EC50) came out at 1500 nM.
